Results published in US6355673B1, “Substituted diaminocarboxylic acids” (Aventis Pharma Deutschland GmbH, priority 1997, dated 2002).

Key:
stromelysin (MMP-3) = target: T1, stromelysin (MMP-3) (Homo sapiens, UniProt P08254); assay: Enzyme inhibition of the catalytic domain of human stromelysin (fluorogenic substrate); assay type: biochemical; conditions: 15 min preincubation, pH=6.5, fluorescence 328 nm (ex)/393 nm (em)
T1 construct: enzymatic activity of the catalytic domains of human stromelysin and of neutrophil collagenase; made in house
Protocol: (§1) Preparation and determination of the enzymatic activity of the catalytic domains of human stromelysin and of neutrophil collagenase.
(§2) The enzymes stromelysin (MMP-3) and neutrophil collagenase (MMP-8) were prepared according to Ye et al. (Biochemistry; 31 (1992) pages 11231-11235). To measure the enzyme activity or the enzyme inhibitor action, 70 μl of buffer solution and 10 μl of enzyme solution are incubated for 15 min with 10 μl of a 10% strength (v/v) aqueous dimethyl sulfoxide solution, which optionally contains the enzyme inhibitor. After addition of 10 μl of a 10% strength (v/v) aqueous dimethyl sulfoxide solution which contains 1 mil/L of the substrates, the enzyme reaction is monitored by fluorescence spectroscopy (328 nm (ex)/393 nm(em)). The enzyme activity is shown as the extinction increase/min. The IC50 values listed in Table 2 are determined as those inhibitor concentrations which in each case lead to a 50% inhibition of the enzyme.
(§3) The buffer solution contains 0.05% Brij (Sigma, Deisenhofen, Germany) and also 0.1 mol/L tris/HCl, 0.1 mol/L NaCl, 0.01 mol/L CaCl2 and 0.1 mol/L piperazine-N,N′-bis(2-ethanesulfonic acid) (pH=6.5). The enzyme solution contains 5 μg/ml of one of the enzyme domains prepared according to Ye et al. The substrate solution contains 1 mil/L of the fluorogenic substrate (7-methoxycoumarin-4-yl)acetyl-Pro-Leu-Gly-Leu-3-(2′,4′-dinitrophenyl)-L-2,3-diaminopropionyl-Ala-Arg-NH2 (Bachem, Heidelberg, Germany).

[1] = target: T2, neutrophil collagenase (MMP-8) (Homo sapiens, UniProt P22894); assay: Enzyme inhibition of the catalytic domain of neutrophil collagenase (fluorogenic substrate); assay type: biochemical; conditions: 15 min preincubation, pH=6.5, fluorescence 328 nm (ex)/393 nm (em)
T2 construct: enzymatic activity of the catalytic domains of human stromelysin and of neutrophil collagenase; made in house
Protocol: as §1, §2, §3

T2 sequence (P22894 100-262 limits assumed): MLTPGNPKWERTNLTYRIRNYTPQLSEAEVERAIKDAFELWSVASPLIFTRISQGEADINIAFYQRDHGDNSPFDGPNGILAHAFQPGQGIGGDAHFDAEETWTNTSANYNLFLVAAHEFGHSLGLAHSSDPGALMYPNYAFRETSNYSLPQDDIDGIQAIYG
T1 sequence (P08254 100-272 limits assumed): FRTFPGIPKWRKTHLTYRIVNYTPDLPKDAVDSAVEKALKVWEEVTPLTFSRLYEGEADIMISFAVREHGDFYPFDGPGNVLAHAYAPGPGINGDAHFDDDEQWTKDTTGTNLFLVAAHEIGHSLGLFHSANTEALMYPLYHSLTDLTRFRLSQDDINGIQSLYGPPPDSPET

SMILES	IC50 (stromelysin (MMP-3))	IC50 [1]
CC(=O)Oc1ccccc1C(=O)NCCC[C@H](NS(=O)(=O)c1ccc(-c2ccc(Cl)cc2)cc1)C(=O)O [Example 73]	4 nM	2 nM
O=C(NCCC[C@H](NS(=O)(=O)c1ccc(-c2ccc(Cl)cc2)cc1)C(=O)O)c1ccccc1O [Example 74]	10 nM	3 nM
NC(=O)C1(C(=O)NCCC[C@H](NS(=O)(=O)c2ccc(-c3ccc(Cl)cc3)cc2)C(=O)O)CC1 [Example 75]	20 nM	4 nM
O=C(O)c1ccccc1S(=O)(=O)NCCC[C@H](NS(=O)(=O)c1ccc(-c2ccc(Cl)cc2)cc1)C(=O)O [Example 76]	40 nM	40 nM
C[C@@H]1NC(=O)N(CCC[C@H](NS(=O)(=O)c2ccc(-c3ccc(Cl)cc3)cc2)C(=O)O)C1=O [Example 77]	10 nM	2 nM
O=C(CC[C@H](C(=O)O)c1ccccc1)NCCC[C@H](NS(=O)(=O)c1ccc(-c2ccc(Cl)cc2)cc1)C(=O)O [Example 79]	5 nM	2 nM
O=C(CC[C@@H](C(=O)O)c1ccccc1)NCCC[C@H](NS(=O)(=O)c1ccc(-c2ccc(Cl)cc2)cc1)C(=O)O [Example 80]	10 nM	3 nM
CC(C)(CC(=O)O)CC(=O)NCCC[C@H](NS(=O)(=O)c1ccc(-c2ccc(Cl)cc2)cc1)C(=O)O [Example 81]	30 nM	3 nM
CCC(=O)NCCC[C@H](NS(=O)(=O)c1ccc(-c2ccc(Cl)cc2)cc1)C(=O)O [Example 82]	20 nM	4 nM
O=C(NCCC[C@H](NS(=O)(=O)c1ccc(-c2ccc(Cl)cc2)cc1)C(=O)O)c1ccccc1Cl [Example 83]	7 nM	3 nM
O=C(NCCC[C@H](NS(=O)(=O)c1ccc(-c2ccc(Cl)cc2)cc1)C(=O)O)C1CSCN1 (some centres unmarked) [Example 84]	20 nM	4 nM
N#Cc1ccc(C(=O)NCCC[C@H](NS(=O)(=O)c2ccc(-c3ccc(Cl)cc3)cc2)C(=O)O)cc1 [Example 85]	20 nM	5 nM
O=C(NCCC[C@H](NS(=O)(=O)c1ccc(-c2ccc(Cl)cc2)cc1)C(=O)O)c1ccc(F)cc1F [Example 86]	20 nM	4 nM
O=C(NCCC[C@H](NS(=O)(=O)c1ccc(-c2ccc(Cl)cc2)cc1)C(=O)O)c1ccc(F)c(F)c1 [Example 87]	30 nM	10 nM
O=C(NCCC[C@H](NS(=O)(=O)c1ccc(-c2ccc(Cl)cc2)cc1)C(=O)O)c1ccccc1F [Example 88]	10 nM	3 nM
O=C(Cc1ccc(Cl)cc1)NCCC[C@H](NS(=O)(=O)c1ccc(-c2ccc(Cl)cc2)cc1)C(=O)O [Example 89]	30 nM	10 nM
O=C(NCCC[C@H](NS(=O)(=O)c1ccc(-c2ccc(Cl)cc2)cc1)C(=O)O)c1ccc(Cl)cc1 [Example 90]	20 nM	5 nM
O=C(NCCC[C@H](NS(=O)(=O)c1ccc(-c2ccc(Cl)cc2)cc1)C(=O)O)c1cccc(Cl)c1 [Example 91]	30 nM	5 nM
O=C(NCCC[C@H](NS(=O)(=O)c1ccc(-c2ccc(Cl)cc2)cc1)C(=O)O)c1ccc(Cl)c(Cl)c1 [Example 92]	40 nM	20 nM
O=C(NCCC[C@H](NS(=O)(=O)c1ccc(-c2ccc(Cl)cc2)cc1)C(=O)O)c1cc(F)cc(F)c1 [Example 93]	20 nM	4 nM
O=C(NCCC[C@H](NS(=O)(=O)c1ccc(-c2ccc(Cl)cc2)cc1)C(=O)O)c1cc(F)ccc1F [Example 94]	30 nM	5 nM
O=C(NCCC[C@H](NS(=O)(=O)c1ccc(-c2ccc(Cl)cc2)cc1)C(=O)O)c1cccc(F)c1 [Example 95]	20 nM	4 nM
O=C(NCCC[C@H](NS(=O)(=O)c1ccc(-c2ccc(Cl)cc2)cc1)C(=O)O)C1Cc2ccccc2N1 (some centres unmarked) [Example 96]	20 nM	6 nM
O=C(NCCC[C@H](NS(=O)(=O)c1ccc(-c2ccc(Cl)cc2)cc1)C(=O)O)c1cccc(F)c1F [Example 97]	20 nM	4 nM
COCC(=O)NCCC[C@H](NS(=O)(=O)c1ccc(-c2ccc(Cl)cc2)cc1)C(=O)O [Example 98]	10 nM	3 nM
O=C(NCCC[C@H](NS(=O)(=O)c1ccc(-c2ccc(Cl)cc2)cc1)C(=O)O)c1ccco1 [Example 99]	5 nM	2 nM

SMILES	IC50 (stromelysin (MMP-3))	IC50 [1]
Cc1ccsc1C(=O)NCCC[C@H](NS(=O)(=O)c1ccc(-c2ccc(Cl)cc2)cc1)C(=O)O [Example 100]	4 nM	2 nM
O=C(/C=C/c1ccccc1)NCCC[C@H](NS(=O)(=O)c1ccc(-c2ccc(Cl)cc2)cc1)C(=O)O [Example 101]	40 nM	10 nM
O=C(NCCC[C@H](NS(=O)(=O)c1ccc(-c2ccc(Cl)cc2)cc1)C(=O)O)c1ccc(O)cc1 [Example 102]	20 nM	5 nM
O=C(NCCC[C@H](NS(=O)(=O)c1ccc(-c2ccc(Cl)cc2)cc1)C(=O)O)c1ccc(Cc2ccccc2)cc1 [Example 103]	70 nM	60 nM
COc1ccc(C(=O)NCCC[C@H](NS(=O)(=O)c2ccc(-c3ccc(Cl)cc3)cc2)C(=O)O)c(OC)c1 [Example 104]	30 nM	8 nM
O=C(NCCC[C@H](NS(=O)(=O)c1ccc(-c2ccc(Cl)cc2)cc1)C(=O)O)c1ccc(OC(F)(F)F)cc1 [Example 105]	40 nM	10 nM
CCCCOc1ccc(C(=O)NCCC[C@H](NS(=O)(=O)c2ccc(-c3ccc(Cl)cc3)cc2)C(=O)O)cc1 [Example 106]	60 nM	30 nM
Nc1ccc(C(=O)NCCC[C@H](NS(=O)(=O)c2ccc(-c3ccc(Cl)cc3)cc2)C(=O)O)cc1 [Example 107]	10 nM	4 nM
O=C(CC1CCCCC1)NCCC[C@H](NS(=O)(=O)c1ccc(-c2ccc(Cl)cc2)cc1)C(=O)O [Example 108]	20 nM	5 nM
O=C(NCCC[C@H](NS(=O)(=O)c1ccc(-c2ccc(Cl)cc2)cc1)C(=O)O)c1ccc(C(F)(F)F)cc1F [Example 109]	20 nM	7 nM
O=C(NCCC[C@H](NS(=O)(=O)c1ccc(-c2ccc(Cl)cc2)cc1)C(=O)O)c1ccc2ccccc2c1 [Example 110]	40 nM	20 nM
O=C(Cc1cccs1)NCCC[C@H](NS(=O)(=O)c1ccc(-c2ccc(Cl)cc2)cc1)C(=O)O [Example 111]	10 nM	3 nM
O=C(O)[C@H](CCCN(Cc1ccccc1)C(=O)C1CC1)NS(=O)(=O)c1ccc(-c2ccc(Cl)cc2)cc1 [Example 113]	5 nM	3 nM
O=C(O)[C@H](CCCn1sc2ccccc2c1=O)NS(=O)(=O)c1ccc(-c2ccc(Cl)cc2)cc1 [Example 114]	5 nM	2 nM
O=C(NCCC[C@H](NS(=O)(=O)c1ccc(-c2ccc(Cl)cc2)cc1)C(=O)O)c1ccc(Cl)cc1Cl [Example 115]	5 nM	3 nM
O=C(Cc1ccc(F)cc1)NCCC[C@H](NS(=O)(=O)c1ccc(-c2ccc(Cl)cc2)cc1)C(=O)O [Example 116]	20 nM	4 nM
O=C(NCCC[C@H](NS(=O)(=O)c1ccc(-c2ccc(Cl)cc2)cc1)C(=O)O)c1ccccc1 [Example 117]	9 nM	2 nM
CC(C)COC(=O)NCCC[C@H](NS(=O)(=O)c1ccc(-c2ccc(Cl)cc2)cc1)C(=O)O [Example 118]	10 nM	4 nM
Cc1ccc(C(=O)NCCC[C@H](NS(=O)(=O)c2ccc(-c3ccc(Cl)cc3)cc2)C(=O)O)s1 [Example 120]	20 nM	4 nM
O=C(NCCC[C@H](NS(=O)(=O)c1ccc(-c2ccc(Cl)cc2)cc1)C(=O)O)c1cccs1 [Example 122]	3 nM	2 nM
O=C(NCCC[C@H](NS(=O)(=O)c1ccc(-c2ccc(Cl)cc2)cc1)C(=O)O)c1ccc2[nH]nnc2c1 [Example 125]	10 nM	10 nM
O=C(NCCC[C@H](NS(=O)(=O)c1ccc(-c2ccc(Cl)cc2)cc1)C(=O)O)c1ccc2ncccc2c1 [Example 126]	30 nM	10 nM
O=C(NCCC[C@H](NS(=O)(=O)c1ccc(-c2ccc(Cl)cc2)cc1)C(=O)O)c1ccncc1 [Example 127]	20 nM	3 nM
O=C(O)[C@H](CCCNC(=O)N1CCOCC1)NS(=O)(=O)c1ccc(-c2ccc(Cl)cc2)cc1 [Example 128]	5 nM	2 nM
O=C(NCCC[C@H](NS(=O)(=O)c1ccc(-c2ccc(Cl)cc2)cc1)C(=O)O)c1ccccc1C(F)(F)F [Example 129]	10 nM	2 nM
O=C(NCCC[C@H](NS(=O)(=O)c1ccc(-c2ccc(Cl)cc2)cc1)C(=O)O)c1cccc(C(F)(F)F)c1 [Example 130]	20 nM	4 nM
